Results on 2 compounds are retold here after US20230173075A1, “ENCAPSULATED COMPOSITIONS AND USE OF OCTENYLSUCCINIC ANHYDRIDE STARCH AS EMULSIFYING AGENT” (Kansas State University Research Foundation, priority 2020, published 2023).

Data set [1] in a line: X-ray diffraction (XRD) physical state. Conditions: Example 2 (CU), fresh. Type of data set: physicochemical. How it is done: The physical state of the spray-dried emulsions samples was obtained with an X-ray diffractometer (APD 3520, Philips, Netherlands). The instrument was operated at 35 kV, 20 mA with Cu-Kα radiation, a theta-compensating slit, and a diffracted beam monochromator. Data were recorded between the diffraction angles (2θ) of 2° and 35°. Differential scanning calorimetry (DSC) measurement of spray dried drug powder was studied with the TA instrument Q200 V24.4 (New Castle, Del., USA) in a range of −20 to 120° C. under nitrogen flow of 70 mL/min. The spray-dried emulsions powder (3-5 mg) was accurately weighed into DSC stainless steel pan. An empty pan was used as a reference. The heating rate of 10° C./min was used.
The physical state of the spray-dried emulsions samples was obtained with an X-ray diffractometer (APD 3520, Philips, Netherlands). The instrument was operated at 35 kV, 20 mA with Cu-Kα radiation, a theta-compensating slit, and a diffracted beam monochromator. Data were recorded between the diffraction angles (2θ) of 2° and 35°.

The conditions of data set [2]: FF in a hard gelatin capsule, launched 1975; cited from earlier work.

For `COc1cc(/C=C/C(=O)CC(=O)/C=C/c2ccc(O)c(OC)c2)ccc1O` [CU, Curcumin], the XRD physical state entry in data set [1] was “crystalline form”. In the case of `CC(C)OC(=O)C(C)(C)Oc1ccc(C(=O)c2ccc(Cl)cc2)cc1` [FF, Fenofibrate], the maximum bioavailability in data set [2] was 60%.
